Data on two molecules can be found in US10793547B2, “Modulator of the cystic fibrosis transmembrane conductance regulator, pharmaceutical compositions, methods of treatment, and process for making the modulator” (Vertex Pharmaceuticals Incorporated, priority 2016, dated 2020).

The target in series [1] is T1, F508del-CFTR (Homo sapiens, UniProt P13569, DEL508-508).
T1 construct: expressed in transfected cells
Put plainly: Membrane potential optical (FLIPR) assay for F508del-CFTR modulators in NIH 3T3 cells. The note with it: for EC50: assay A1. Format: cell-based. The procedure, abridged:
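NIH3T3 mouse fibroblasts stably expressing F508del, seeded on matrigel and cultured 18-24 h at 37 °C; for correction, cells were cultured with or without compound for 18-24 h. Cells were loaded with voltage-sensing dye, then compound was added in one step with a chloride gradient (chloride replaced by gluconate). Membrane potential was read by fluorescence.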

Series [2] addresses T2, human PXR (Homo sapiens, UniProt O75469).
T2 construct: host or cells: DPX-2 cell line (derived from HepG2)
T2 sequence (O75469 1-434): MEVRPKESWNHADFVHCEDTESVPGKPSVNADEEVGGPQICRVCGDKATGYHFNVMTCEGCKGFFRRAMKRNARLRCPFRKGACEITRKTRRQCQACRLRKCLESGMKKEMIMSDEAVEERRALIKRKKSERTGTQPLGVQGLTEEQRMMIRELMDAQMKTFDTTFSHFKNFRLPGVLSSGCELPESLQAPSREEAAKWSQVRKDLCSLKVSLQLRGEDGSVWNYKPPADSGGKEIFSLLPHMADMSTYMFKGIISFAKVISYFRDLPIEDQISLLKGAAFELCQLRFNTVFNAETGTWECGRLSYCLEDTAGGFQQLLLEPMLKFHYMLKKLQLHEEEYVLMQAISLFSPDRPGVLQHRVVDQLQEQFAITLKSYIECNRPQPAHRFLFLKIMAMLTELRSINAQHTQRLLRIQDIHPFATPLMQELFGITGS
Kind of series: PXR assay: PXR mediated CYP3A4 induction in DPX-2 cell line. Format: cell-based. The note with it: DPX-2 cells. The procedure, abridged:
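HepG2-derived DPX-2 cells stably carrying human PXR and a CYP3A4 promoter/enhancer–luciferase reporter; 11 doses from 0.1 to 60 μM for 48 h, rifampicin as positive control. Viability read by fluorescence, then luciferase luminescence; max fold induction over vehicle and EC50 reported.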

A short description of series [3]: MDCK-Wild Type permeability, 96 well + 0.1% BSA. The note with it: dog, MDCK, A-B direction, read-out: MDCK-Wild Type-Permeability 96 well + 0.1% BSA Papp compound (A-B). Format: in vitro ADME.
Series [4] deals with Rat hepatocytes. Put plainly: Hepatocyte clearance, rat hepatocytes. The format is in vitro ADME. Particulars: percent unchanged.
Series [5] is described as follows: Rat IV and PO PK studies. Format: in vivo, male Sprague-Dawley rats. The protocol: C. Experimental Protocol for Rat IV and PO PK Studies
The tested compound was administered to male Sprague-Dawley rats as a single nominal intravenous dose of 3.0 mg/kg as a solution in 10% NMP, 10% solution, 15% EtOH, 35% PEG400 and 30% D5W. The tested compound was also administered to male Sprague-Dawley rats at single nominal oral dose of 3 mg/kg as a solution in 5% NMP, 30% PEG400, 10% TPGS, 5% PVP-K30 at 5 mL/kg dose volume. Analyses of plasma and dose preparations were performed using LC/MS/MS.
Plasma concentration-time profiles of the tested compound in Sprague-Dawley rats at scheduled (nominal) sampling times were analyzed by noncompartmental pharmacokinetic methods using PK function within Watson LIMS software, Version 7.4.2 (Thermo Scientific Inc, Waltham, Mass.). AUC values were calculated using the linear trapezoidal rule.

Series [6] concerns F508del/F508del-HBE cells. Kind of series: Ussing chamber chloride transport experiment. Format: cell-based. The procedure:
Ussing chamber experiments were performed on polarized airway epithelial cells expressing F508del to further characterize the F508del modulators identified in the optical assays. Non-CF and CF airway epithelia were isolated from bronchial tissue, cultured as previously described (Galietta, L. J. V., Lantero, S., Gazzolo, A., Sacco, O., Romano, L., Rossi, G. A., & Zegarra-Moran, O. (1998) In Vitro Cell. Dev. Biol. 34, 478-481), and plated onto Costar® Snapwell™ filters that were precoated with NIH3T3-conditioned media. After four days the apical media was removed and the cells were grown at an air liquid interface for >14 days prior to use. […] CF-HBE were isolated from patients homozygous for F508del or compound heterozygous for F508del with an different disease causing mutation on the other allele.
HBE grown on Costar® Snapwell™ cell culture inserts were mounted in an Ussing chamber (Physiologic Instruments, Inc., San Diego, Calif.), and the transepithelial resistance and short-circuit current in the presence of a basolateral to apical Cl^− gradient (ISC) were measured using a voltage-clamp system (Department of Bioengineering, University of Iowa, Iowa). Briefly, HBE were examined under voltage-clamp recording conditions (Vhold=0 mV) at 37° C. […]

A short description of series [7]: Metabolism of Compound 1 in vitro and in vivo. Particulars: in vitro and in vivo.
In series [8] the test system is MDCK-Wild Type. Kind of series: MDCK-Wild Type permeability, 96 well + 0.1% BSA. The format is in vitro ADME. Particulars: A-B direction.
The mark [9] stands for this setting: NIH 3T3 cells expressing F508del, read-out: CFTRdF508 Cor 3T3 FLIPR 384 CFTRdF508 MP 3T3 770 EC50.

Where two headings read alike, the source gives them in different places.

T1 sequence (P13569 with tags, fused parts or gaps DEL508-508): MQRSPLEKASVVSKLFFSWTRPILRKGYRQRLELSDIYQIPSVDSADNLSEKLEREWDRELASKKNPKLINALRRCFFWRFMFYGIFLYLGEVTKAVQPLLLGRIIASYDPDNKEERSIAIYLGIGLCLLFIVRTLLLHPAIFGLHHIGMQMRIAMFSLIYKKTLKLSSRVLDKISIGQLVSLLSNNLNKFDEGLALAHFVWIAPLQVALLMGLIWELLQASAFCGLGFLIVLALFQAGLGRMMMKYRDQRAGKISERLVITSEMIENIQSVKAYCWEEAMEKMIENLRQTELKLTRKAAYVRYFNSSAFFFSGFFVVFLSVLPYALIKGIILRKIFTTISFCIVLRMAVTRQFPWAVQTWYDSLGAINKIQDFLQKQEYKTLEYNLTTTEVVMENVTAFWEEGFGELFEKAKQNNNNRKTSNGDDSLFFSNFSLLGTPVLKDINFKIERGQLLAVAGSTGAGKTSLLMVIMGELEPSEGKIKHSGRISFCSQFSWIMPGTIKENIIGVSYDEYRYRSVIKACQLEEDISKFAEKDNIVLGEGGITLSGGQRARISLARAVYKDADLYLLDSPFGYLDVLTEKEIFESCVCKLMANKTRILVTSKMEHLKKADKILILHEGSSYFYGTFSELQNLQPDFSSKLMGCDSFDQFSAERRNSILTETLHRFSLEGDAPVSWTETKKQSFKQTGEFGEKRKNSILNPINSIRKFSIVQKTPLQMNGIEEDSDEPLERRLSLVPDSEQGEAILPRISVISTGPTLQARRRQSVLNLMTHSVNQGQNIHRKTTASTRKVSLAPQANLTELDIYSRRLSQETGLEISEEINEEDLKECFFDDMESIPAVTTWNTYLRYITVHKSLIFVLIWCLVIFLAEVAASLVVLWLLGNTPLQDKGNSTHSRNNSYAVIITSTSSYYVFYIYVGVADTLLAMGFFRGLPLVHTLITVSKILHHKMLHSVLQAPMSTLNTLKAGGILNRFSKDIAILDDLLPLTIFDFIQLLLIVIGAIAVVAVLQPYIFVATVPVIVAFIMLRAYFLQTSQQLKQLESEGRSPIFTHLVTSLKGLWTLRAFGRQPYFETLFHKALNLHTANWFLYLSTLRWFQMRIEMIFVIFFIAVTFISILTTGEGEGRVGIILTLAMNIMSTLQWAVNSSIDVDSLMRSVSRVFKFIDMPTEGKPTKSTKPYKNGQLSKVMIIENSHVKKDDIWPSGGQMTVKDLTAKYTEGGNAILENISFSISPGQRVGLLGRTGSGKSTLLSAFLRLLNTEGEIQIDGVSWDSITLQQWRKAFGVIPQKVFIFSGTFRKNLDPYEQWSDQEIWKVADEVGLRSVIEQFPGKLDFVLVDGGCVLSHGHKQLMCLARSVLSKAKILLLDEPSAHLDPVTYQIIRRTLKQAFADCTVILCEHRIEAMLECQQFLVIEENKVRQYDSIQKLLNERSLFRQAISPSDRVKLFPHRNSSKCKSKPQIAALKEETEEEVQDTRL

Turning to `Cc1nn(C)cc1S(=O)(=O)NC(=O)c1ccc(-n2ccc(OCC(C)(C)C(F)(F)F)n2)nc1N1C[C@@H](C)CC1(C)C` [Compound 1, N-(1,3-dimethylpyrazol-4-yl)sulfonyl-6-[3-(3,3,3-trifluoro-2,2-dimethyl-propoxy)pyrazol-1-yl]-2-[(4S)-2,2,4-trimethylpyrrolidin-1-yl]pyridine-3-carboxamide], the Emax in series [1] (NIH3T3, assay A1, read-out: % Efficacy relative to Compound II) was ≥ 100%. The values for the concentration for a half-maximal effect (EC50) in series [1] (setting [9]) and in series [1] (read-out: EC50) were 70 nM and < 3000 nM, respectively. In addition, the “CYP3A4 Induction-PXR human PXR internal Max % Activity” value in series [2] is given as 2%. In addition, in series [3], the Papp A→B (usually how fast a substance crosses the layer from the apical side) was 4.5 ×10⁻⁶ cm/s. In addition, the “Hepatocyte clearance-Rat Rat hepatocytes CL pct_unchanged” value in series [4] was found to be 66%. Besides, in series [5] (IV bolus, nominal 3.0 mg/kg), the “RAT PLASMA-RAW IV-bolus CL_drg” value was determined as 1.6 mL/min/kg. For the same molecule, in series [5] (PO, nominal 3 mg/kg), the “RAT PLASMA-RAW PO % F_drg” value is recorded as 83%. For the same molecule, in series [5] (male, Sprague-Dawley, plasma, PO, nominal 3 mg/kg, read-out: RAT PLASMA-RAW PO AUC (0-inf)_drg), the total exposure AUC(0-inf) (in general, total exposure, with the tail of the curve extrapolated) was determined as 23500 ng·h/mL. In addition, in series [6], the “effect on chloride transport in combination with Compound II” value is “additive to the effect of Compound II”. In addition, the chloride transport result in series [6] (Compound 1 alone) is “enhanced chloride transport”. For the same molecule, the metabolism entry in series [7] is “metabolized both in vitro and in vivo, mostly by oxidative metabolism”.

Turning to `Cc1nn(C)cc1S(=O)(=O)NC(=O)c1ccc(-n2ccc(OC3CC3C(F)(F)F)n2)nc1N1C[C@@H](C)CC1(C)C` (stereo partly drawn) [Compound 35, N-(1,3-dimethylpyrazol-4-yl)sulfonyl-6-[3-[2-(trifluoromethyl)cyclopropoxy]pyrazol-1-yl]-2-[(4S)-2,2,4-trimethylpyrrolidin-1-yl]pyridine-3-carboxamide], in series [1] (setting [9]), the half-maximal effective concentration (EC50) (as a rule, the midpoint of the concentration-response curve) worked out at 1400 nM. In addition, the “CYP3A4 Induction-PXR human PXR internal Max % Activity” value in series [2] is on record as 21%. Besides, the “MDCK-Wild Type-Permeability 96 well + 0.1% BSA Papp compound (A-B)” value in series [8] is recorded as 5.5 10E-6 cm/s. Also, the “Hepatocyte clearance-Rat Rat hepatocytes CL pct_unchanged” value in series [4] is 54%.
